Data from ChEMBL document CHEMBL3885861, “Open TG-GATES”.

Species: Rattus norvegicus
Assay: Open TG-GATES - Regimen: Daily Repeat
Assay type: toxicity, organism-based, Sprague-Dawley
Parameters: regimen Daily Repeat, gender Male, age 6 weeks
Settings: in vivo, po, 300 mg/kg, route gavage, dose level High; for APTT / Bas / Eos / Fbg / Hb / Ht / Lym / MCH / MCHC / MCV / Mono / Neu / PT / Plat / RBC / Ret / WBC: tissue Blood; for KIDNEY_L / KIDNEY_R / KIDNEY_TOTAL: tissue Kidney; for LIVER: tissue Liver; for A/G / ALP / ALT / AST / BUN / CRE / Ca / Cl / DBIL / GLC / IP / K / LDH / Na / PL / RALB / TBIL / TC / TG / TP / gamma-GTP: tissue Plasma

SMILES: ClC(Cl)(Cl)Cl [CARBON TETRACHLORIDE]
- TERMINAL_BW (72 h, time 3 day): 213 g
- APTT (72 h, time 3 day): 21.4 s
- Bas (72 h, time 3 day): 0%
- Eos (72 h, time 3 day): 1%
- Fbg (72 h, time 3 day): 217 mg/dL
- Hb (72 h, time 3 day): 14.1 g/dL
- Ht (72 h, time 3 day): 41.3%
- Lym (72 h, time 3 day): 73%
- MCH (72 h, time 3 day): 21.6 pg
- MCHC (72 h, time 3 day): 34.1%
- MCV (72 h, time 3 day): 63.2 fL
- Mono (72 h, time 3 day): 4%
- Neu (72 h, time 3 day): 20.4%
- PT (72 h, time 3 day): 13.5 s
- Plat (72 h, time 3 day): 114.2 x10_4/uL
- RBC (72 h, time 3 day): 655 x10_4/ul
- Ret (72 h, time 3 day): 5.5%
- WBC (72 h, time 3 day): 96.3 x10_2/uL
- KIDNEY_L (72 h, time 3 day): 1 g
- KIDNEY_R (72 h, time 3 day): 1 g
- KIDNEY_TOTAL (72 h, time 3 day): 1.9 g
- LIVER (72 h, time 3 day): 11.1 g
- A/G (72 h, time 3 day): 1.5
- ALP (72 h, time 3 day): 1664.6 IU/L
- ALT (72 h, time 3 day): 124.8 IU/L
- AST (72 h, time 3 day): 283.8 IU/L
- BUN (72 h, time 3 day): 14.6 mg/dL
- CRE (72 h, time 3 day): 0.4 mg/dL
- Ca (72 h, time 3 day): 10.7 mg/dL
- Cl (72 h, time 3 day): 103.8 meq/L
- DBIL (72 h, time 3 day): 0.068 mg/dL
- GLC (72 h, time 3 day): 178.4 mg/dL
- IP (72 h, time 3 day): 7.3 mg/dL
- K (72 h, time 3 day): 3.8 meq/L
- LDH (72 h, time 3 day): 355.2 IU/L
- Na (72 h, time 3 day): 140.4 meq/L
- PL (72 h, time 3 day): 116.4 mg/dL
- RALB (72 h, time 3 day): 3.1 g/dL
- TBIL (72 h, time 3 day): 0.1 mg/dL
- TC (72 h, time 3 day): 49.8 mg/dL
- TG (72 h, time 3 day): 28.6 mg/dL
- TP (72 h, time 3 day): 5.3 g/dL
- gamma-GTP (72 h, time 3 day): 1.2 IU/L
- TERMINAL_BW ([…], time 7 day): 248.2 g
- TERMINAL_BW ([…], time 14 day): 287.9 g
- TERMINAL_BW ([…], time 28 day): 367.6 g
- APTT ([…], time 7 day): 20.7 s
- Bas ([…], time 7 day): 0%
- Eos ([…], time 7 day): 1%
- Fbg ([…], time 7 day): 230.4 mg/dL
- Hb ([…], time 7 day): 13.5 g/dL
- Ht ([…], time 7 day): 39.2%
- Lym ([…], time 7 day): 78.8%
- MCH ([…], time 7 day): 21.4 pg
- MCHC ([…], time 7 day): 34.4%
- MCV ([…], time 7 day): 62.3 fL
- Mono ([…], time 7 day): 3.6%
- Neu ([…], time 7 day): 16.2%
- PT ([…], time 7 day): 12.4 s
- Plat ([…], time 7 day): 106.7 x10_4/uL
- RBC ([…], time 7 day): 629.6 x10_4/ul
- Ret ([…], time 7 day): 6%
- WBC ([…], time 7 day): 130.8 x10_2/uL
- APTT ([…], time 14 day): 23 s
- Bas ([…], time 14 day): 0%
- Eos ([…], time 14 day): 1%
- Fbg ([…], time 14 day): 211.6 mg/dL
- Hb ([…], time 14 day): 14.2 g/dL
- Ht ([…], time 14 day): 42.3%
- Lym ([…], time 14 day): 81.4%
- MCH ([…], time 14 day): 19.1 pg
- MCHC ([…], time 14 day): 33.7%
- MCV ([…], time 14 day): 56.9 fL
- Mono ([…], time 14 day): 3%
- Neu ([…], time 14 day): 14.2%
- PT ([…], time 14 day): 12.6 s
- Plat ([…], time 14 day): 101.2 x10_4/uL
- RBC ([…], time 14 day): 744.4 x10_4/ul
- Ret ([…], time 14 day): 3.5%
- WBC ([…], time 14 day): 113.3 x10_2/uL
- APTT ([…], time 28 day): 25.3 s
- Bas ([…], time 28 day): 0%
- Eos ([…], time 28 day): 1%
- Fbg ([…], time 28 day): 198.8 mg/dL
- Hb ([…], time 28 day): 14.5 g/dL
- Ht ([…], time 28 day): 43.1%
- Lym ([…], time 28 day): 82.4%
- MCH ([…], time 28 day): 17.9 pg
- MCHC ([…], time 28 day): 33.6%
- MCV ([…], time 28 day): 53.1 fL
- Mono ([…], time 28 day): 3.4%
- Neu ([…], time 28 day): 13.2%
- PT ([…], time 28 day): 13.7 s
- Plat ([…], time 28 day): 99.7 x10_4/uL
- RBC ([…], time 28 day): 811.4 x10_4/ul
- Ret ([…], time 28 day): 2.3%
- WBC ([…], time 28 day): 151.6 x10_2/uL
- KIDNEY_L ([…], time 7 day): 1.1 g
- KIDNEY_R ([…], time 7 day): 1.1 g
- KIDNEY_TOTAL ([…], time 7 day): 2.2 g
- KIDNEY_L ([…], time 14 day): 1.1 g
- KIDNEY_R ([…], time 14 day): 1.1 g
- KIDNEY_TOTAL ([…], time 14 day): 2.2 g
- KIDNEY_L ([…], time 28 day): 1.2 g
- KIDNEY_R ([…], time 28 day): 1.2 g
- KIDNEY_TOTAL ([…], time 28 day): 2.5 g
- LIVER ([…], time 7 day): 13.7 g
- LIVER ([…], time 14 day): 15.9 g
- LIVER ([…], time 28 day): 20.8 g
- A/G ([…], time 7 day): 1.6
- ALP ([…], time 7 day): 1583 IU/L
- ALT ([…], time 7 day): 72.2 IU/L
- AST ([…], time 7 day): 139.2 IU/L
- BUN ([…], time 7 day): 16 mg/dL
- CRE ([…], time 7 day): 0.4 mg/dL
- Ca ([…], time 7 day): 10.6 mg/dL
- Cl ([…], time 7 day): 104.4 meq/L
- DBIL ([…], time 7 day): 0.074 mg/dL
- GLC ([…], time 7 day): 186.2 mg/dL
- IP ([…], time 7 day): 8.5 mg/dL
- K ([…], time 7 day): 4.1 meq/L
- LDH ([…], time 7 day): 305.4 IU/L
- Na ([…], time 7 day): 140.6 meq/L
- PL ([…], time 7 day): 129.2 mg/dL
- RALB ([…], time 7 day): 3.3 g/dL
- TBIL ([…], time 7 day): 0.1 mg/dL
- TC ([…], time 7 day): 56 mg/dL
- TG ([…], time 7 day): 44.4 mg/dL
- TP ([…], time 7 day): 5.4 g/dL
- gamma-GTP ([…], time 7 day): 1.4 IU/L
- A/G ([…], time 14 day): 1.6
- ALP ([…], time 14 day): 1597.4 IU/L
- ALT ([…], time 14 day): 149.4 IU/L
- AST ([…], time 14 day): 238.6 IU/L
- BUN ([…], time 14 day): 16.4 mg/dL
- CRE ([…], time 14 day): 0.5 mg/dL
- Ca ([…], time 14 day): 10.4 mg/dL
- Cl ([…], time 14 day): 103.8 meq/L
- DBIL ([…], time 14 day): 0.064 mg/dL
- GLC ([…], time 14 day): 187.6 mg/dL
- IP ([…], time 14 day): 7.5 mg/dL
- K ([…], time 14 day): 3.9 meq/L
- LDH ([…], time 14 day): 389.6 IU/L
- Na ([…], time 14 day): 140.8 meq/L
- PL ([…], time 14 day): 113 mg/dL
- RALB ([…], time 14 day): 3.4 g/dL
- TBIL ([…], time 14 day): 0.1 mg/dL
- TC ([…], time 14 day): 51.6 mg/dL
- TG ([…], time 14 day): 21 mg/dL
- TP ([…], time 14 day): 5.7 g/dL
- gamma-GTP ([…], time 14 day): 1.4 IU/L
- A/G ([…], time 28 day): 1.3
- ALP ([…], time 28 day): 1255 IU/L
- ALT ([…], time 28 day): 300.8 IU/L
- AST ([…], time 28 day): 396.2 IU/L
- BUN ([…], time 28 day): 17.8 mg/dL
- CRE ([…], time 28 day): 0.5 mg/dL
- Ca ([…], time 28 day): 10.6 mg/dL
- Cl ([…], time 28 day): 103.4 meq/L
- DBIL ([…], time 28 day): 0.092 mg/dL
- GLC ([…], time 28 day): 174.2 mg/dL
- IP ([…], time 28 day): 6.4 mg/dL
- K ([…], time 28 day): 3.9 meq/L
- LDH ([…], time 28 day): 534.6 IU/L
- Na ([…], time 28 day): 141.6 meq/L
- PL ([…], time 28 day): 103.6 mg/dL
- RALB ([…], time 28 day): 3.4 g/dL
- TBIL ([…], time 28 day): 0.2 mg/dL
- TC ([…], time 28 day): 39.4 mg/dL
- TG ([…], time 28 day): 20.8 mg/dL
- TP ([…], time 28 day): 5.9 g/dL
- gamma-GTP ([…], time 28 day): 1.2 IU/L
